# Measurements: patent US9072800B2, “Hand sanitizer” (TRISTEL PLC, priority 2009, dated 2015)
# Assay: Flash point by Tag Closed Cup
# Format: physicochemical
# Source text: MMB also has the benefit over ethanol that it is substantially non-flammable. […] MMB is considered to be extremely safe, having no R and S phrases and Occupational Exposure Limit.
smiles,measurement,value
"COC(C)(C)CCO [MMB, 3-methoxy-3-methylbutan-1-ol]",flash point,68 °C
